Test results published in PubChem BioAssay AID1963832 (Molecular Pharmacology Branch, DTP, NCI, 2024).

Tested on: 885724-159-R-J1-PDC complex spheroid viability
Experiment: Anticancer human tumor 885724-159-R-J1-PDC patient-derived pancreatic adenocarcinoma cell line growth inhibition [POLQ]
Conditions: for IC50: curve of first compound; for viability, T/C: stronger effect = lower value
Description: Multicellular complex tumor spheroid response to Polymerase (POL) inhibitors (novobiocin, ART-558, RP6685) in combination with a variety of drugs and investigational agents in selected tumor cell lines
The POL inhibitors (novobiocin, ART-558, and RP6685) were evaluated both individually and in combination with standard of care and investigational anticancer small molecules within a complex spheroid model of solid tumors. . Complex spheroids include a stromal component modeled by human endothelial cells (HUVEC) and fibroblasts modeled by human mesenchymal stem cells (MSCs). The concentration ranges selected for each drug and investigational agent were based upon clinically achievable concentrations if the clinical Cmax of the agent was known.
Compounds. The drugs and investigational agents: novobiocin (NSC847541), ART-558 (NSC835418), RP-6685 (NSC848927), peposertib (NSC802822), ceralasertib (NSC780249), elimusertib (NSC800525), camonsertib (NSC841442), AZD-1390 (NSC803789), olaparib (NSC753686), talazoparib (NSC767125), rucaparib (NSC756644), sotorasib (NSC818433), MRTX-1133 (NSC836407), SN-38 (NSC673596), topotecan (NSC609699), epotoside (NSC141540), doxorubicin (NSC123127), gemcitabine (NSC613327), 5-fluorouracil (NSC19893), paclitaxel (NSC125973), vemurafenib (NSC761431), MSA-2 (NSC828583), SN-011 (NSC837082), adavosertib (NSC754352), prexasertib (NSC758257), carboplatin (NSC241240) and oxaliplatin (NSC266046), were obtained from the National Cancer Institute (NCI) Developmental Therapeutics Program Chemical Repository (21). The FDA-approved anticancer drug set is available from the Developmental Therapeutics Program at https://dtp.cancer.gov/organization/dscb/obtaining/. […] The stock solutions were prepared in dimethyl sulfoxide (DMSO, Sigma-Aldrich, St. Louis, MO, cat. D2650), except for the platinum compounds which were prepared in saline (Quality Biological, Gaithersburg, MD, cat. 114-055-101), at 800-fold the tested concentration and stored at -70 degrees C prior to their use. All drugs and investigational agents were tested over a range starting from a high concentration at or near the clinical Cmax and decreasing in half-log increments. If the clinical Cmax for an agent had not been determined, the highest concentration tested was 10 microM, except for SN-38, which was tested at a high concentration of 1 microM.
Cell Culture. All cells were maintained in an incubator at 37 degrees C and 5% CO2 with 95% humidity. The PDC lines were cultured according to standard operating procedures established by the NCI PDMR (https://pdmr.cancer.gov). Table 3 of the manuscript, lists the cell lines along with the number of the three cell types plated to form the mct-spheroids and media for tumor cell growth. After thawing, all PDC lines, except 997537-175-T-J1-PDC and 415267-285-R-J2-PDC, were cultured in Matrigel-coated flasks prepared with a working solution of 1X Ham's F-12 nutrient mix, without supplementation (Thermo Fisher Scientific, cat. 11765054), 100 U/mL penicillin-streptomycin (Thermo Fisher Scientific, cat. 15140122), and 2.5% Matrigel (Corning Inc., Corning, NY, cat. 354248) for the first three passages. The two PDC lines 997537-175-T-J1-PDC and 415267-285-R-J2-PDC were cultured on uncoated flasks. The 857933-349-R-J2-PDC line was cultured in 6C/Colon 1B media containing advanced DMEM/F-12 (Thermo Fisher Scientific, cat. 12634028), 10 mM HEPES (Thermo Fisher Scientific, cat. 15630080), 1X GlutaMAX supplement (Thermo Fisher Scientific, cat. 35050061), 0.1 mg/mL primocin (InvivoGen, San Diego, CA, cat. ant-pm-2), 10% defined fetal bovine serum, heat inactivated (HyClone Laboratories Inc., Logan, UT, cat. SH30070.03HI), 50% L-WRN conditioned media (ATCC, cat. CRL-3276), 1.25 mM N-Acetyl-L-cysteine (Sigma-Aldrich, cat. A9165), 10 mM nicotinamide (Sigma-Aldrich, cat. N0636), 1X B-27 supplement (Thermo Fisher Scientific, cat. 17504044), 1X N-2 supplement (Thermo Fisher Scientific, cat. […]

[1] = second compound 0.0316 µM, first compound 0.0316 µM
[2] = second compound 0.0316 µM, first compound 0.1 µM
[3] = second compound 0.0316 µM, first compound 0.316 µM
[4] = second compound 0.0316 µM, first compound 1 µM
[5] = second compound 0.0316 µM, first compound 3.16 µM
[6] = second compound 0.0316 µM, first compound 10 µM
[7] = second compound 0.1 µM, first compound 0.0316 µM
[8] = second compound 0.1 µM, first compound 0.1 µM
[9] = second compound 0.1 µM, first compound 0.316 µM
[10] = second compound 0.1 µM, first compound 1 µM
[11] = second compound 0.1 µM, first compound 3.16 µM
[12] = second compound 0.1 µM, first compound 10 µM
[13] = second compound 0.316 µM, first compound 0.0316 µM
[14] = second compound 0.316 µM, first compound 0.1 µM
[15] = second compound 0.316 µM, first compound 0.316 µM
[16] = second compound 0.316 µM, first compound 1 µM
[17] = second compound 0.316 µM, first compound 3.16 µM
[18] = second compound 0.316 µM, first compound 10 µM
[19] = second compound 1 µM, first compound 0.0316 µM
[20] = second compound 1 µM, first compound 0.1 µM
[21] = second compound 1 µM, first compound 0.316 µM
[22] = second compound 1 µM, first compound 1 µM
[23] = second compound 1 µM, first compound 3.16 µM
[24] = second compound 1 µM, first compound 10 µM
[25] = second compound 3.16 µM, first compound 0.0316 µM
[26] = second compound 3.16 µM, first compound 0.1 µM
[27] = second compound 3.16 µM, first compound 0.316 µM
[28] = second compound 3.16 µM, first compound 1 µM
[29] = second compound 3.16 µM, first compound 3.16 µM
[30] = second compound 3.16 µM, first compound 10 µM
[31] = second compound 10 µM, first compound 0.0316 µM
[32] = second compound 10 µM, first compound 0.1 µM
[33] = second compound 10 µM, first compound 0.316 µM
[34] = second compound 10 µM, first compound 1 µM
[35] = second compound 10 µM, first compound 3.16 µM
[36] = second compound 10 µM, first compound 10 µM
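Further: spheroids exposed to compounds for 7 days.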

## CC(=O)O[C@H]1C(=O)[C@@]2(C)[C@H]([C@H](OC(=O)c3ccccc3)[C@]3(O)C[C@H](OC(=O)[C@H](O)[C@@H](NC(=O)c4ccccc4)c4ccccc4)C(C)=C1C3(C)C)[C@]1(OC(C)=O)CO[C@@H]1C[C@@H]2O + COC1C(OC(N)=O)C(O)C(Oc2ccc3c(O)c(NC(=O)c4ccc(O)c(CC=C(C)C)c4)c(=O)oc3c2C)OC1(C)C
Second compound 0.0316 µM
  IC50: > 3 µM
Second compound 0.1 µM
  IC50: > 3 µM
Second compound 0.316 µM
  IC50: > 3 µM
Second compound 1 µM
  IC50: > 3 µM
Second compound 3.16 µM
  IC50: > 3 µM
Second compound 10 µM
  IC50: > 3 µM
Second compound 0.0316 µM, first compound 0.00949 µM
  viability, T/C: 57.8%
Second compound 0.0316 µM, first compound 0.03 µM
  viability, T/C: 60.2%
Second compound 0.0316 µM, first compound 0.0949 µM
  viability, T/C: 55.6%
Second compound 0.0316 µM, first compound 0.3 µM
  viability, T/C: 59%
Second compound 0.0316 µM, first compound 0.949 µM
  viability, T/C: 59.9%
Second compound 0.0316 µM, first compound 3 µM
  viability, T/C: 61.6%
Second compound 0.1 µM, first compound 0.00949 µM
  viability, T/C: 66.1%
Second compound 0.1 µM, first compound 0.03 µM
  viability, T/C: 59.6%
Second compound 0.1 µM, first compound 0.0949 µM
  viability, T/C: 56.8%
Second compound 0.1 µM, first compound 0.3 µM
  viability, T/C: 66.1%
Second compound 0.1 µM, first compound 0.949 µM
  viability, T/C: 64.5%
Second compound 0.1 µM, first compound 3 µM
  viability, T/C: 56.8%
Second compound 0.316 µM, first compound 0.00949 µM
  viability, T/C: 64%
Second compound 0.316 µM, first compound 0.03 µM
  viability, T/C: 54.9%
Second compound 0.316 µM, first compound 0.0949 µM
  viability, T/C: 55.7%
Second compound 0.316 µM, first compound 0.3 µM
  viability, T/C: 56.6%
Second compound 0.316 µM, first compound 0.949 µM
  viability, T/C: 61.1%
Second compound 0.316 µM, first compound 3 µM
  viability, T/C: 68.4%
Second compound 1 µM, first compound 0.00949 µM
  viability, T/C: 65.4%
Second compound 1 µM, first compound 0.03 µM
  viability, T/C: 60%
Second compound 1 µM, first compound 0.0949 µM
  viability, T/C: 57.9%
Second compound 1 µM, first compound 0.3 µM
  viability, T/C: 62.3%
Second compound 1 µM, first compound 0.949 µM
  viability, T/C: 53.1%
Second compound 1 µM, first compound 3 µM
  viability, T/C: 56%
Second compound 3.16 µM, first compound 0.00949 µM
  viability, T/C: 64.3%
Second compound 3.16 µM, first compound 0.03 µM
  viability, T/C: 57.6%
Second compound 3.16 µM, first compound 0.0949 µM
  viability, T/C: 52.9%
Second compound 3.16 µM, first compound 0.3 µM
  viability, T/C: 56.3%
Second compound 3.16 µM, first compound 0.949 µM
  viability, T/C: 60.3%
Second compound 3.16 µM, first compound 3 µM
  viability, T/C: 66.5%
Second compound 10 µM, first compound 0.00949 µM
  viability, T/C: 60.6%
Second compound 10 µM, first compound 0.03 µM
  viability, T/C: 51.5%
Second compound 10 µM, first compound 0.0949 µM
  viability, T/C: 59.3%
Second compound 10 µM, first compound 0.3 µM
  viability, T/C: 56.5%
Second compound 10 µM, first compound 0.949 µM
  viability, T/C: 67.2%
Second compound 10 µM, first compound 3 µM
  viability, T/C: 67.4%

## COc1cccc2c1C(=O)c1c(O)c3c(c(O)c1C2=O)CC(O)(C(=O)CO)CC3OC1CC(N)C(O)C(C)O1 (stereo unspecified) + COC1C(OC(N)=O)C(O)C(Oc2ccc3c(O)c(NC(=O)c4ccc(O)c(CC=C(C)C)c4)c(=O)oc3c2C)OC1(C)C
Second compound 0.0316 µM
  IC50: 0.208 µM
Second compound 0.1 µM
  IC50: 0.204 µM
Second compound 0.316 µM
  IC50: 0.201 µM
Second compound 1 µM
  IC50: 0.192 µM
Second compound 3.16 µM
  IC50: 0.197 µM
Second compound 10 µM
  IC50: 0.196 µM
[1]
  viability, T/C: 71.6%
[2]
  viability, T/C: 91.5%
[3]
  viability, T/C: 31.9%
[4]
  viability, T/C: 11.6%
[5]
  viability, T/C: 6%
[6]
  viability, T/C: 7.47%
[7]
  viability, T/C: 71%
[8]
  viability, T/C: 89.4%
[9]
  viability, T/C: 31.5%
[10]
  viability, T/C: 10.3%
[11]
  viability, T/C: 5.36%
[12]
  viability, T/C: 7.37%
[13]
  viability, T/C: 71%
[14]
  viability, T/C: 93.2%
[15]
  viability, T/C: 29%
[16]
  viability, T/C: 9.53%
[17]
  viability, T/C: 5.31%
[18]
  viability, T/C: 7.84%
[19]
  viability, T/C: 65%
[20]
  viability, T/C: 90.5%
[21]
  viability, T/C: 28.9%
[22]
  viability, T/C: 10.3%
[23]
  viability, T/C: 5.98%
[24]
  viability, T/C: 7.87%
[25]
  viability, T/C: 69.5%
[26]
  viability, T/C: 92%
[27]
  viability, T/C: 28.7%
[28]
  viability, T/C: 7.45%
[29]
  viability, T/C: 6%
[30]
  viability, T/C: 7.69%
[31]
  viability, T/C: 64.2%
[32]
  viability, T/C: 85.7%
[33]
  viability, T/C: 32.2%
[34]
  viability, T/C: 7.9%
[35]
  viability, T/C: 6.39%
[36]
  viability, T/C: 7.8%

## O=c1[nH]cc(F)c(=O)[nH]1 + COC1C(OC(N)=O)C(O)C(Oc2ccc3c(O)c(NC(=O)c4ccc(O)c(CC=C(C)C)c4)c(=O)oc3c2C)OC1(C)C
Second compound 0.0316 µM
  IC50: > 10 µM
Second compound 0.1 µM
  IC50: > 10 µM
Second compound 0.316 µM
  IC50: > 10 µM
Second compound 1 µM
  IC50: > 10 µM
Second compound 3.16 µM
  IC50: > 10 µM
Second compound 10 µM
  IC50: > 10 µM
[1]
  viability, T/C: 103%
[2]
  viability, T/C: 104%
[3]
  viability, T/C: 91.6%
[4]
  viability, T/C: 95.6%
[5]
  viability, T/C: 89.4%
[6]
  viability, T/C: 80.5%
[7]
  viability, T/C: 117%
[8]
  viability, T/C: 96.3%
[9]
  viability, T/C: 101%
[10]
  viability, T/C: 97%
[11]
  viability, T/C: 88.4%
[12]
  viability, T/C: 67.5%
[13]
  viability, T/C: 99%
[14]
  viability, T/C: 91.9%
[15]
  viability, T/C: 103%
[16]
  viability, T/C: 93.8%
[17]
  viability, T/C: 80.3%
[18]
  viability, T/C: 73.6%
[19]
  viability, T/C: 119%
[20]
  viability, T/C: 108%
[21]
  viability, T/C: 100%
[22]
  viability, T/C: 92.7%
[23]
  viability, T/C: 89.6%
[24]
  viability, T/C: 71.8%
[25]
  viability, T/C: 104%
[26]
  viability, T/C: 94.1%
[27]
  viability, T/C: 92.3%
[28]
  viability, T/C: 98.8%
[29]
  viability, T/C: 83.5%
[30]
  viability, T/C: 73.8%
[31]
  viability, T/C: 113%
[32]
  viability, T/C: 86.8%
[33]
  viability, T/C: 92.9%
[34]
  viability, T/C: 96.4%
[35]
  viability, T/C: 83.2%
[36]
  viability, T/C: 70.8%
